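The concentration for 50% growth inhibition is given as GI50. The concentration for full growth arrest is given as TGI.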
What was measured:
Test in all cases: NCI tumour cell line growth inhibition, 384-well format
[1] = tested on: UACC-257 melanoma
[2] = tested on: HS 578T breast
[3] = tested on: A498 renal
[4] = tested on: 786-0 renal
[5] = tested on: SK-OV-3 ovarian
[6] = tested on: T-47D breast
[7] = tested on: MCF7 breast
[8] = tested on: SF-268 CNS
[9] = tested on: DU-145 prostate
[10] = tested on: HL-60(TB) leukemia
[11] = tested on: HCT-116 colon
[12] = tested on: HCC-2998 colon
[13] = tested on: MDA-MB-231 breast
[14] = tested on: CAKI-1 renal
[15] = tested on: LOX IMVI melanoma
[16] = tested on: SF-295 CNS
[17] = tested on: MOLT-4 leukemia
[18] = tested on: SF-539 CNS
[19] = tested on: BT-549 breast
[20] = tested on: MDA-MB-468 breast
[21] = tested on: M14 melanoma
[22] = tested on: NCI-H226 lung
[23] = tested on: HOP-92 NSCLC
[24] = tested on: NCI-H322M lung
[25] = tested on: COLO 205 colon
[26] = tested on: RXF 393 renal
[27] = tested on: CCRF-CEM leukemia
[28] = tested on: IGROV1 ovarian
[29] = tested on: SNB-19 CNS
[30] = tested on: OVCAR-3 ovarian
[31] = tested on: SK-MEL-28 melanoma
[32] = tested on: K-562 leukemia
[33] = tested on: SNB-75 CNS
[34] = tested on: U251 glioblastoma
[35] = tested on: EKVX NSCLC
[36] = tested on: TK-10 renal
[37] = tested on: KM12 colon
[38] = tested on: SK-MEL-5 melanoma
[39] = tested on: SR leukemia
[40] = tested on: SN12C renal
[41] = tested on: NCI-H522 lung
[42] = tested on: HOP-62 NSCLC
[43] = tested on: HCT-15 colon
[44] = tested on: RPMI-8226 leukemia
[45] = tested on: NCI/ADR-RES ovarian
[46] = tested on: NCI-H460 NSCLC
[47] = tested on: ACHN renal
[48] = tested on: MDA-MB-435 melanoma
[49] = tested on: OVCAR-8 ovarian
[50] = tested on: OVCAR-4 ovarian
[51] = tested on: HT29 colon
[52] = tested on: PC-3 prostate
[53] = tested on: NCI-H23 lung
[54] = tested on: UACC-62 melanoma
[55] = tested on: SW-620 colon
[56] = tested on: A549 NSCLC
[57] = tested on: UO-31 renal
[58] = tested on: MALME-3M melanoma
[59] = tested on: OVCAR-5 ovarian
[60] = tested on: SK-MEL-2 melanoma

Work on `CCS(=O)(=O)Nc1ccc(Oc2ccc(F)cc2F)c(-c2cn(C)c(=O)c3[nH]ccc23)c1` yielded a GI50 [1] of 12.8 nM, a TGI [1] of 1890 nM and a GI50 [2] of under 10 nM. The TGI [2] was 14.5 nM, the GI50 [3] was 21 nM and the TGI [3] was 3250 nM. It also gave a GI50 [4] of under 10 nM, a TGI [4] of 2120 nM and a GI50 [5] of under 10 nM. For the same compound, the TGI [5] was 504 nM, the GI50 [6] was 24.6 nM and the TGI [6] was 1430 nM. For the same compound, the GI50 [7] was under 10 nM, the TGI [7] was 1180 nM and the GI50 [8] was 67.4 nM. The TGI [8] was 2740 nM, the GI50 [9] was 174 nM and the TGI [9] was 12500 nM. For the same compound, the GI50 [10] was under 10 nM, the TGI [10] was under 10 nM and the GI50 [11] was 11.2 nM. For the same compound, the TGI [11] was 1450 nM, the GI50 [12] was under 10 nM and the TGI [12] was 40.4 nM. It also gave a GI50 [13] of under 10 nM, a TGI [13] of 2850 nM and a GI50 [14] of under 10 nM. The TGI [14] was 475 nM, the GI50 [15] was under 10 nM and the TGI [15] was 14.4 nM. It also gave a GI50 [16] of 120 nM, a TGI [16] of 4140 nM and a GI50 [17] of under 10 nM. It also gave a TGI [17] of 124 nM, a GI50 [18] of 27.2 nM and a TGI [18] of 3200 nM. It also gave a GI50 [19] of under 10 nM, a TGI [19] of 172 nM and a GI50 [20] of 10.4 nM. The TGI [20] was 429 nM, the GI50 [21] was 12.7 nM and the TGI [21] was 10200 nM. It also gave a GI50 [22] of under 10 nM, a TGI [22] of 796 nM and a GI50 [23] of 10.9 nM. It also gave a TGI [23] of 1520 nM, a GI50 [24] of under 10 nM and a TGI [24] of 1610 nM. It also gave a GI50 [25] of under 10 nM, a TGI [25] of 724 nM and a GI50 [26] of 308 nM. For the same compound, the TGI [26] was 2490 nM, the GI50 [27] was under 10 nM and the TGI [27] was 353 nM. For the same compound, the GI50 [28] was under 10 nM, the TGI [28] was 196 nM and the GI50 [29] was 40.7 nM. The TGI [29] was 12100 nM, the GI50 [30] was under 10 nM and the TGI [30] was 156 nM. It also gave a GI50 [31] of 50.2 nM, a TGI [31] of 2090 nM and a GI50 [32] of under 10 nM. The TGI [32] was 1970 nM, the GI50 [33] was 112 nM and the TGI [33] was 5400 nM. For the same compound, the GI50 [34] was 57.1 nM, the TGI [34] was 1800 nM and the GI50 [35] was 397 nM. It also gave a TGI [35] of 8660 nM, a GI50 [36] of under 10 nM and a TGI [36] of 384 nM. It also gave a GI50 [37] of 10 nM, a TGI [37] of 1270 nM and a GI50 [38] of under 10 nM. The TGI [38] was 876 nM, the GI50 [39] was under 10 nM and the TGI [39] was under 10 nM. For the same compound, the GI50 [40] was 24.8 nM, the TGI [40] was 3290 nM and the GI50 [41] was under 10 nM. For the same compound, the TGI [41] was 114 nM, the GI50 [42] was under 10 nM and the TGI [42] was 337 nM. For the same compound, the GI50 [43] was under 10 nM, the TGI [43] was 1050 nM and the GI50 [44] was under 10 nM. The TGI [44] was under 10 nM, the GI50 [45] was 82.6 nM and the TGI [45] was 1810 nM. It also gave a GI50 [46] of 30.5 nM, a TGI [46] of 2140 nM and a GI50 [47] of 59.7 nM. For the same compound, the TGI [47] was 10100 nM, the GI50 [48] was 140 nM and the TGI [48] was 11500 nM. For the same compound, the GI50 [49] was under 10 nM, the TGI [49] was 131 nM and the GI50 [50] was under 10 nM. For the same compound, the TGI [50] was 79.3 nM, the GI50 [51] was under 10 nM and the TGI [51] was 11000 nM. The GI50 [52] was 22.3 nM, the TGI [52] was 10200 nM and the GI50 [53] was 10.5 nM. It also gave a TGI [53] of 237 nM, a GI50 [54] of under 10 nM and a TGI [54] of 583 nM. It also gave a GI50 [55] of 174 nM, a TGI [55] of 1950 nM and a GI50 [56] of 34.6 nM. The TGI [56] was 10600 nM, the GI50 [57] was 38.2 nM and the TGI [57] was 10300 nM. The GI50 [58] was 11.5 nM and the TGI [58] was 779 nM.
`COc1c(C)cnc(Cn2cnc3c(Cl)nc(N)nc32)c1C` was tested, and the GI50 [1] was 651 nM, the TGI [1] was 34600 nM and the GI50 [2] was 307 nM. For the same compound, the TGI [2] was 1410 nM, the GI50 [3] was 381 nM and the TGI [3] was over 100000 nM. For the same compound, the GI50 [4] was 89.4 nM, the TGI [4] was 2780 nM and the GI50 [5] was 264 nM. It also gave a TGI [5] of 5000 nM, a GI50 [6] of 339 nM and a TGI [6] of 14800 nM. It also gave a GI50 [7] of 51.2 nM, a TGI [7] of over 100000 nM and a GI50 [8] of 133 nM. The TGI [8] was 23800 nM, the GI50 [9] was 40.7 nM and the TGI [9] was 1410 nM. The GI50 [10] was 52.2 nM, the TGI [10] was 172 nM and the GI50 [11] was 194 nM. For the same compound, the TGI [11] was over 100000 nM, the GI50 [12] was 92.3 nM and the TGI [12] was 438 nM. It also gave a GI50 [13] of 272 nM, a TGI [13] of 927 nM and a GI50 [14] of 470 nM. For the same compound, the TGI [14] was 2870 nM, the GI50 [15] was 115 nM and the TGI [15] was 245 nM. It also gave a GI50 [16] of 134 nM, a TGI [16] of 654 nM and a GI50 [17] of 36.2 nM. For the same compound, the TGI [17] was 123 nM, the GI50 [18] was 97.2 nM and the TGI [18] was 389 nM. The GI50 [19] was 50.8 nM, the TGI [19] was 269 nM and the GI50 [20] was 62.2 nM. For the same compound, the TGI [20] was 276 nM, the GI50 [21] was 287 nM and the TGI [21] was 18100 nM. It also gave a GI50 [22] of 245 nM, a TGI [22] of over 100000 nM and a GI50 [23] of 241 nM. For the same compound, the TGI [23] was 737 nM, the GI50 [24] was 167 nM and the TGI [24] was 80100 nM. The GI50 [25] was 28.6 nM, the TGI [25] was 98.1 nM and the GI50 [26] was 692 nM. For the same compound, the TGI [26] was 7520 nM, the GI50 [27] was 36.9 nM and the TGI [27] was 430 nM. For the same compound, the GI50 [28] was 55.9 nM, the TGI [28] was 626 nM and the GI50 [29] was 262 nM. The TGI [29] was 5620 nM, the GI50 [30] was 165 nM and the TGI [30] was 13800 nM. It also gave a GI50 [31] of 388 nM, a TGI [31] of 16200 nM and a GI50 [32] of 55.8 nM. For the same compound, the TGI [32] was 621 nM, the GI50 [33] was 357 nM and the TGI [33] was 2080 nM. The GI50 [34] was 47.3 nM, the TGI [34] was 1300 nM and the GI50 [35] was 319 nM. For the same compound, the TGI [35] was 5030 nM, the GI50 [37] was 52.3 nM and the TGI [37] was 14000 nM. The GI50 [38] was 59.6 nM, the TGI [38] was 16000 nM and the GI50 [39] was 16.3 nM. For the same compound, the TGI [39] was 31.1 nM, the GI50 [40] was 143 nM and the TGI [40] was 488 nM. It also gave a GI50 [41] of 61.7 nM, a TGI [41] of 313 nM and a GI50 [42] of 112 nM. The TGI [42] was 1150 nM, the GI50 [59] was 264 nM and the TGI [59] was over 100000 nM. The GI50 [43] was 59.6 nM, the TGI [43] was 13100 nM and the GI50 [44] was 71.5 nM. The TGI [44] was 296 nM, the GI50 [45] was 177 nM and the TGI [45] was 498 nM. For the same compound, the GI50 [46] was 34 nM, the TGI [46] was 123 nM and the GI50 [47] was 163 nM. The TGI [47] was 38000 nM, the GI50 [48] was 154 nM and the TGI [48] was 53700 nM. For the same compound, the GI50 [50] was 286 nM, the TGI [50] was 27400 nM and the GI50 [51] was 61.5 nM. For the same compound, the TGI [51] was over 100000 nM, the GI50 [52] was 137 nM and the TGI [52] was 664 nM. It also gave a GI50 [60] of 482 nM, a TGI [60] of 783 nM and a GI50 [53] of 149 nM. For the same compound, the TGI [53] was 500 nM, the GI50 [54] was 145 nM and the TGI [54] was 711 nM. It also gave a GI50 [55] of 78.7 nM, a TGI [55] of 5030 nM and a GI50 [56] of 73.9 nM. It also gave a TGI [56] of over 100000 nM, a GI50 [57] of 74.5 nM and a TGI [57] of over 100000 nM. It also gave a GI50 [58] of 189 nM and a TGI [58] of 438 nM.

From PubChem BioAssay (NCI)
